Tests used:
Format in all cases: in vivo
[1] = system: Glycine max (GLXMA); assay: Pre-emergence herbicidal evaluation, soyabeans
Source text: (§1) The pre-emergence herbicidal activity of the compounds of the present invention is exemplified by the following test in which the seeds of a variety of monocotyledonous and dicotyledonous plants are seperately mixed with potting soil and planted on top of approximately one inch of soil in separate pots. After planting, the pots are sprayed with the selected aqueous acetone solution containing test compound in sufficient quantity to provide the equivalent of about 0.0125 to 0.4 kg per hectare of test compound per pot. The treated pots are then placed on greenhouse benches, watered and cared for in accordance with conventional greenhouse procedures. From 2 to 4 weeks after treatment, the tests are terminated and each pot is examined and rated according to the rating system set forth below.

[2] = system: Oryza sativum (ORYSA); assay: Pre-emergence herbicidal evaluation, rice
Source text: as §1

[3] = system: Triticum aestivum (TRZAW); assay: Pre-emergence herbicidal evaluation, winter wheat
Source text: as §1

[4] = system: Zea mays (ZEAMX); assay: Pre-emergence herbicidal evaluation, maize
Source text: as §1

[5] = system: Abutilon theophrasti (ABUTH); assay: Pre-emergence herbicidal evaluation, velvetleaf
Source text: as §1

[6] = system: Galium aparine (GALAP); assay: Pre-emergence herbicidal evaluation, cleaver
Source text: as §1

[7] = system: Ipomoea hederacea (IPOHE); assay: Pre-emergence herbicidal evaluation, morning glory
Source text: as §1

[8] = system: Matricaria inodora (MATIN); assay: Pre-emergence herbicidal evaluation, mayweed
Source text: as §1

[9] = system: Solanum nigrum (SOLNI); assay: Pre-emergence herbicidal evaluation, black nightshade
Source text: as §1

[10] = system: Stellaria media (STEME); assay: Pre-emergence herbicidal evaluation, chickweed
Source text: as §1

[11] = system: Alopecurus myosuroides (ALOMY); assay: Pre-emergence herbicidal evaluation, black grass
Source text: as §1

[12] = system: Setaria viridis (SETVI); assay: Pre-emergence herbicidal evaluation, green foxtail
Source text: as §1

[13] = system: Oryza sativum (ORYSA); assay: Post-emergence herbicidal evaluation, rice; conditions: rated 2 to 4 weeks after treatment
Procedure: (§2) [table] [table] […] These acetone solutions are diluted with water and the resulting formulations applied at dosage levels equivalent of about 0.03 to 0.4 kg per hectare of test compound per pot. After spraying the plants are placed on greenhouse benches and are cared for in the usual manner, commensurate with conventional greenhouse practices. From 2 to 4 weeks after treatment, the seedling plants are examined and rated according to the rating system provided above. A rating 0 indicates growth as untreated control, a rating 9 indicates death.

[14] = system: Triticum aestivum (TRZAW); assay: Post-emergence herbicidal evaluation, winter wheat; conditions: rated 2 to 4 weeks after treatment
Procedure: as §2

[15] = system: Zea mays (ZEAMX); assay: Post-emergence herbicidal evaluation, maize; conditions: rated 2 to 4 weeks after treatment
Procedure: as §2

[16] = system: Abutilon theophrasti (ABUTH); assay: Post-emergence herbicidal evaluation, velvetleaf; conditions: rated 2 to 4 weeks after treatment
Procedure: as §2

[17] = system: Ambrosia artemiisifolia (AMBEL); assay: Post-emergence herbicidal evaluation, ragweed; conditions: rated 2 to 4 weeks after treatment
Procedure: as §2

[18] = system: Galium aparine (GALAP); assay: Post-emergence herbicidal evaluation, cleaver; conditions: rated 2 to 4 weeks after treatment
Procedure: as §2

[19] = system: Ipomoea hederacea (IPOHE); assay: Post-emergence herbicidal evaluation, morning glory; conditions: rated 2 to 4 weeks after treatment
Procedure: as §2

[20] = system: Lamium purpureum (LAMPU); assay: Post-emergence herbicidal evaluation, purple deadnettle; conditions: rated 2 to 4 weeks after treatment
Procedure: as §2

[21] = system: Matricaria inodora (MATIN); assay: Post-emergence herbicidal evaluation, mayweed; conditions: rated 2 to 4 weeks after treatment
Procedure: as §2

[22] = system: Stellaria media (STEME); assay: Post-emergence herbicidal evaluation, chickweed; conditions: rated 2 to 4 weeks after treatment
Procedure: as §2

[23] = system: Alopecurus myosuroides (ALOMY); assay: Post-emergence herbicidal evaluation, black grass; conditions: rated 2 to 4 weeks after treatment
Procedure: as §2

[24] = system: Digitaria sanguinalis (DIGSA); assay: Post-emergence herbicidal evaluation, large crabgrass; conditions: rated 2 to 4 weeks after treatment
Procedure: as §2

[25] = system: Setaria viridis (SETVI); assay: Post-emergence herbicidal evaluation, green foxtail; conditions: rated 2 to 4 weeks after treatment
Procedure: as §2

SMILES: CC(Cl)=CCOc1cc(C)cc(Oc2cc(C(F)(F)F)nn2C)n1 [Example 11]
- selectivity in soybeans [1]: quite selective
- GLXMA rating ([1]; dose 0.013 kg/ha): 0 (0 - No effect)
- GLXMA rating ([1]; dose 0.025 kg/ha): 1 (1 - Trace effect)
- GLXMA rating ([1]; dose 0.1 kg/ha): 2 (2 - Slight effect)
- GLXMA rating ([1]; dose 0.4 kg/ha): 4 (4 - Injury)
- ORYSA rating ([2]; dose 0.013 kg/ha): 1 (1 - Trace effect)
- ORYSA rating ([2]; dose 0.025 kg/ha): 1 (1 - Trace effect)
- ORYSA rating ([2]; dose 0.1 kg/ha): 2 (2 - Slight effect)
- ORYSA rating ([2]; dose 0.4 kg/ha): 3 (3 - Moderate effect)
- TRZAW rating ([3]; dose 0.013 kg/ha): 0 (0 - No effect)
- TRZAW rating ([3]; dose 0.025 kg/ha): 2 (2 - Slight effect)
- TRZAW rating ([3]; dose 0.1 kg/ha): 2 (2 - Slight effect)
- TRZAW rating ([3]; dose 0.4 kg/ha): 4 (4 - Injury)
- ZEAMX rating ([4]; dose 0.013 kg/ha): 1 (1 - Trace effect)
- ZEAMX rating ([4]; dose 0.025 kg/ha): 2 (2 - Slight effect)
- ZEAMX rating ([4]; dose 0.1 kg/ha): 3 (3 - Moderate effect)
- ZEAMX rating ([4]; dose 0.4 kg/ha): 5 (5 - Definite injury)
- activity against Abutilon [5]: superior activity
- ABUTH rating ([5]; dose 0.013 kg/ha): 3 (3 - Moderate effect)
- ABUTH rating ([5]; dose 0.025 kg/ha): 7 (7 - Good herbicidal effect)
- ABUTH rating ([5]; dose 0.1 kg/ha): 9 (9 - Complete kill)
- ABUTH rating ([5]; dose 0.4 kg/ha): 9 (9 - Complete kill)
- GALAP rating ([6]; dose 0.013 kg/ha): 1 (1 - Trace effect)
- GALAP rating ([6]; dose 0.025 kg/ha): 3 (3 - Moderate effect)
- GALAP rating ([6]; dose 0.1 kg/ha): 6 (6 - Herbicidal effect)
- GALAP rating ([6]; dose 0.4 kg/ha): 8 (8 - Approaching complete kill)
- IPOHE rating ([7]; dose 0.013 kg/ha): 2 (2 - Slight effect)
- IPOHE rating ([7]; dose 0.025 kg/ha): 4 (4 - Injury)
- IPOHE rating ([7]; dose 0.1 kg/ha): 8 (8 - Approaching complete kill)
- IPOHE rating ([7]; dose 0.4 kg/ha): 9 (9 - Complete kill)
- MATIN rating ([8]; dose 0.013 kg/ha): 9 (9 - Complete kill)
- MATIN rating ([8]; dose 0.025 kg/ha): 9 (9 - Complete kill)
- MATIN rating ([8]; dose 0.1 kg/ha): 9 (9 - Complete kill)
- MATIN rating ([8]; dose 0.4 kg/ha): 9 (9 - Complete kill)
- SOLNI rating ([9]; dose 0.013 kg/ha): 5 (5 - Definite injury)
- SOLNI rating ([9]; dose 0.025 kg/ha): 7 (7 - Good herbicidal effect)
- SOLNI rating ([9]; dose 0.1 kg/ha): 8 (8 - Approaching complete kill)
- SOLNI rating ([9]; dose 0.4 kg/ha): 9 (9 - Complete kill)
- activity against Stellaria [10]: superior activity
- STEME rating ([10]; dose 0.013 kg/ha): 8 (8 - Approaching complete kill)
- STEME rating ([10]; dose 0.025 kg/ha): 9 (9 - Complete kill)
- STEME rating ([10]; dose 0.1 kg/ha): 9 (9 - Complete kill)
- STEME rating ([10]; dose 0.4 kg/ha): 9 (9 - Complete kill)
- ALOMY rating ([11]; dose 0.013 kg/ha): 6 (6 - Herbicidal effect)
- ALOMY rating ([11]; dose 0.025 kg/ha): 9 (9 - Complete kill)
- ALOMY rating ([11]; dose 0.1 kg/ha): 9 (9 - Complete kill)
- ALOMY rating ([11]; dose 0.4 kg/ha): 9 (9 - Complete kill)
- activity against Setaria [12]: superior activity
- SETVI rating ([12]; dose 0.013 kg/ha): 7 (7 - Good herbicidal effect)
- SETVI rating ([12]; dose 0.025 kg/ha): 8 (8 - Approaching complete kill)
- SETVI rating ([12]; dose 0.1 kg/ha): 9 (9 - Complete kill)
- SETVI rating ([12]; dose 0.4 kg/ha): 9 (9 - Complete kill)
- ORYSA rating ([13]; dose 0.03 kg/ha): 1 (1 - Trace effect)
- ORYSA rating ([13]; dose 0.1 kg/ha): 3 (3 - Moderate effect)
- ORYSA rating ([13]; dose 0.4 kg/ha): 4 (4 - Injury)
- TRZAW rating ([14]; dose 0.03 kg/ha): 3 (3 - Moderate effect)
- TRZAW rating ([14]; dose 0.1 kg/ha): 3 (3 - Moderate effect)
- TRZAW rating ([14]; dose 0.4 kg/ha): 3 (3 - Moderate effect)
- ZEAMX rating ([15]; dose 0.03 kg/ha): 2 (2 - Slight effect)
- ZEAMX rating ([15]; dose 0.1 kg/ha): 5 (5 - Definite injury)
- ZEAMX rating ([15]; dose 0.4 kg/ha): 5 (5 - Definite injury)
- ABUTH rating ([16]; dose 0.03 kg/ha): 5 (5 - Definite injury)
- ABUTH rating ([16]; dose 0.1 kg/ha): 7 (7 - Good herbicidal effect)
- ABUTH rating ([16]; dose 0.4 kg/ha): 8 (8 - Approaching complete kill)
- AMBEL rating ([17]; dose 0.03 kg/ha): 3 (3 - Moderate effect)
- AMBEL rating ([17]; dose 0.1 kg/ha): 7 (7 - Good herbicidal effect)
- AMBEL rating ([17]; dose 0.4 kg/ha): 8 (8 - Approaching complete kill)
- GALAP rating ([18]; dose 0.03 kg/ha): 6 (6 - Herbicidal effect)
- GALAP rating ([18]; dose 0.1 kg/ha): 9 (9 - Complete kill)
- GALAP rating ([18]; dose 0.4 kg/ha): 9 (9 - Complete kill)
- IPOHE rating ([19]; dose 0.03 kg/ha): 6 (6 - Herbicidal effect)
- IPOHE rating ([19]; dose 0.1 kg/ha): 9 (9 - Complete kill)
- IPOHE rating ([19]; dose 0.4 kg/ha): 9 (9 - Complete kill)
- LAMPU rating ([20]; dose 0.03 kg/ha): 0 (0 - No effect)
- LAMPU rating ([20]; dose 0.1 kg/ha): 3 (3 - Moderate effect)
- LAMPU rating ([20]; dose 0.4 kg/ha): 8 (8 - Approaching complete kill)
- MATIN rating ([21]; dose 0.03 kg/ha): 7 (7 - Good herbicidal effect)
- MATIN rating ([21]; dose 0.1 kg/ha): 8 (8 - Approaching complete kill)
- MATIN rating ([21]; dose 0.4 kg/ha): 8 (8 - Approaching complete kill)
- STEME rating ([22]; dose 0.03 kg/ha): 4 (4 - Injury)
- STEME rating ([22]; dose 0.1 kg/ha): 6 (6 - Herbicidal effect)
- STEME rating ([22]; dose 0.4 kg/ha): 8 (8 - Approaching complete kill)
- ALOMY rating ([23]; dose 0.03 kg/ha): 6 (6 - Herbicidal effect)
- ALOMY rating ([23]; dose 0.1 kg/ha): 8 (8 - Approaching complete kill)
- ALOMY rating ([23]; dose 0.4 kg/ha): 8 (8 - Approaching complete kill)
- DIGSA rating ([24]; dose 0.03 kg/ha): 9 (9 - Complete kill)
- DIGSA rating ([24]; dose 0.1 kg/ha): 9 (9 - Complete kill)
- DIGSA rating ([24]; dose 0.4 kg/ha): 9 (9 - Complete kill)
- SETVI rating ([25]; dose 0.03 kg/ha): 5 (5 - Definite injury)
- SETVI rating ([25]; dose 0.1 kg/ha): 6 (6 - Herbicidal effect)
- SETVI rating ([25]; dose 0.4 kg/ha): 8 (8 - Approaching complete kill)

Reference: patent publication US6852673B2, “Herbicidal pyridine compounds” (BASF Aktiengesellschaft, priority 1998, dated 2005)
